36 compounds from patent publication US9353051B2, “Antiviral drugs for treatment or prevention of dengue infection” (Siga Technologies Inc., priority 2007, dated 2016) can be followed below.

Structures are written as SMILES.

The test system of the assay is Dengue-2 (Strain New Guinea C). Description: viral yield assay against Dengue-2 in Vero cells. The class given is cell-based. Conditions: Dengue virus; Vero cells, MOI 0.1, harvested 48 hours post infection; read-out: Activity (anti-dengue 2 viral activity, EC50). In a few lines:
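Vero cells infected with dengue-2 at MOI 0.1 were treated with compound (DMSO control) at 37° C., harvested 48 h post infection and titered on Vero cells.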
Broadly, the EC50 is the concentration that produces a half-maximal response. Take `CC(=O)NCCc1ccc(S(=O)(=O)Nc2ccc3ncn(Cc4ccccc4)c(=O)c3c2)cc1` [Compound 104, N-{2-[4-(3-Benzyl-4-oxo-3,4-dihydro-quinazolin-6-ylsulfamoyl)-phenyl]-ethyl}-acetamide]: the EC50 was > 25 µM.
As for `CCN(CC)S(=O)(=O)c1cc(NC(=O)Cn2cnc3ccccc3c2=O)ccc1C` [Compound 105, N-(3-Diethylsulfamoyl-4-methyl-phenyl)-2-(4-oxo-4H-quinazolin-3-yl)-acetamide], the figure is > 25 µM.
The figure for `NS(=O)(=O)c1cccc(NC(=O)Cn2cnc3ccccc3c2=O)c1` [Compound 106, 2-(4-Oxo-4H-quinazolin-3-yl)-N-(3-sulfamoyl-phenyl)-acetamide] is > 25 µM.
As for `CN(C)S(=O)(=O)c1cccc(NC(=O)Cn2cnc3ccccc3c2=O)c1` [Compound 107, N-(3-Dimethylsulfamoyl-phenyl)-2-(4-oxo-4H-quinazolin-3-yl)-acetamide], the figure is > 25 µM.
With `NS(=O)(=O)c1ccc(NC(=O)Cn2nc(C(=O)O)c3ccccc3c2=O)cc1` [Compound 108, 4-Oxo-3-[(4-sulfamoyl-phenylcarbamoyl)-methyl]-3,4-dihydro-phthalazine-1-carboxylic acid], the EC50 is > 25 µM.
The figure for `NS(=O)(=O)c1ccc(NC(=O)CCc2nc3ccccc3c(=O)[nH]2)cc1` [Compound 109, 3-(4-Oxo-3,4-dihydro-quinazolin-2-yl)-N-(4-sulfamoyl-phenyl)-propionamide] is > 25 µM; for `NS(=O)(=O)c1ccc(NC(=O)Cn2cnc3cc([N+](=O)[O-])ccc3c2=O)cc1` [Compound 110, 2-(7-Nitro-4-oxo-4H-quinazolin-3-yl)-N-(4-sulfamoyl-phenyl)-acetamide] it is > 25 µM; for `NS(=O)(=O)c1ccc(NC(=O)COC(=O)Cn2cnc3ccccc3c2=O)cc1` [Compound 111, (4-Oxo-4H-quinazolin-3-yl)-acetic acid (4-sulfamoyl-phenylcarbamoyl)-methyl ester] it is > 25 µM.
Take `CN(Cc1nc2ccccc2c(=O)[nH]1)C(=O)c1ccc(S(=O)(=O)N(C)C)cc1` [Compound 112, 4-Dimethylsulfamoyl-N-methyl-N-(4-oxo-3,4-dihydro-quinazolin-2-ylmethyl)-benzamide]: the EC50 is > 25 µM.
The figure for `O=C(Cn1nnc2ccccc2c1=O)Nc1ccc(S(=O)(=O)N2CCCC2)cc1` [Compound 113, 2-(4-Oxo-4H-benzo[d][1,2,3]triazin-3-yl)-N-[4-(pyrrolidine-1-sulfonyl)-phenyl]-acetamide] is > 25 µM.
`CCN(CC(=O)NCCc1ccc(S(N)(=O)=O)cc1)Cc1nc2ccccc2c(=O)[nH]1` [Compound 114, 2-[Ethyl-(4-oxo-3,4-dihydro-quinazolin-2-ylmethyl)-arnino]-N-[2-(4-sulfamoyl-phenyl)-ethyl]-acetamide]: the EC50 was > 25 µM.
Regarding `CCN(CC(=O)Nc1ccc(S(=O)(=O)N(C)C)cc1)Cc1nc2ccccc2c(=O)[nH]1` [Compound 115, N-(4-Dimethylsulfamoyl-phenyl)-2-[ethyl-(4-oxo-3,4-dihydro-quinazolin-2-ylmethyl)-amino]-acetamide], the 50% effective concentration (EC50) was > 25 µM.
The figure for `NS(=O)(=O)c1ccc(NC(=O)COC(=O)CCc2nc3ccccc3c(=O)[nH]2)cc1` [Compound 116, 3-(4-Oxo-3,4-dihydro-quinazolin-2-yl)-propionic acid (4-sulfamoyl-phenylcarbamoyl)-methyl ester] is > 25 µM; for `Cc1ccc(S(=O)(=O)N(C)c2ccc(OC(=O)Cn3cnc4ccccc4c3=O)cc2)cc1C` [Compound 117, (4-Oxo-4H-quinazolin-3-yl)-acetic acid 4-[(3,4-dimethyl-benzenesulfonyl)-methyl-amino]-phenyl ester] it is > 25 µM; for `CCN(CC(=O)NCCc1ccc(S(N)(=O)=O)cc1)Cc1nc2cc(OC)c(OC)cc2c(=O)[nH]1` [Compound 118, 2-[(6,7-Dimethoxy-4-oxo-3,4-dihydro-quinazolin-2-ylmethyl)-ethyl-amino]-N-[2-(4-sulfamoyl-phenyl)-ethyl]-acetamide] it is > 25 µM.
`NS(=O)(=O)c1ccc(NC(=O)Cn2c(=O)cnc3ccccc32)cc1` [Compound 119, 2-(2-Oxo-2H-quinoxalin-1-yl)-N-(4-sulfamoyl-phenyl)-acetamide]: the 50% effective concentration (EC50) was > 25 µM.
As for `CCN(CC(=O)Nc1ccc(S(N)(=O)=O)cc1)Cc1nc2cc(OC)c(OC)cc2c(=O)[nH]1` [Compound 120, 2-[(6,7-Dimethoxy-4-oxo-3,4-dihydro-quinazolin-2-ylmethyl)-ethyl-amino]-N-(4-sulfamoyl-phenyl)-acetamide], the figure is > 25 µM; as for `O=C(Cn1cnc2ccccc2c1=O)Nc1cccc(S(=O)(=O)N2CCCC2)c1` [Compound 121, 2-(4-Oxo-4H-quinazolin-3-yl)-N-[3-(pyrrolidine-1-sulfonyl)-phenyl]-acetamide], > 25 µM; as for `CN(c1ccccc1)S(=O)(=O)c1cccc(NC(=O)Cn2cnc3ccccc3c2=O)c1` [Compound 122, N-[3-(Methyl-phenyl-sulfamoyl)-phenyl]-2-(4-oxo-4H-quinazolin-3-yl)-acetamide], > 25 µM.
In the case of `O=C(Cn1cnc2cc([N+](=O)[O-])ccc2c1=O)Nc1ccc(S(=O)(=O)N2CCCC2)cc1` [Compound 123, 2-(7-Nitro-4-oxo-4H-quinazolin-3-yl)-N-[4-(pyrrolidine-1-sulfonyl)-phenyl]-acetamide], the EC50 is > 25 µM.
Turning to `O=C(COC(=O)Cn1cnc2ccccc2c1=O)Nc1ccc(S(=O)(=O)N2CCCC2)cc1` [Compound 124, (4-Oxo-4H-quinazolin-3-yl)-acetic acid [4-(pyrrolidine-1-sulfonyl)-phenylcarbamoyl]-methyl ester], the concentration for a half-maximal effect (EC50) was > 25 µM.
As for `COc1ccc(S(=O)(=O)N(C)C)cc1NC(=O)COC(=O)Cn1cnc2ccccc2c1=O` [Compound 125, (4-Oxo-4H-quinazolin-3-yl)-acetic acid (5-dimethylsulfamoyl-2-methoxy-phenylcarbamoyl)-methyl ester], the figure is > 25 µM; as for `COc1ccc(S(=O)(=O)N(C)C)cc1NC(=O)Cn1cnc2cc([N+](=O)[O-])ccc2c1=O` [Compound 126, N-(5-Dimethylsulfamoyl-2-methoxy-phenyl)-2-(7-nitro-4-oxo-4H-quinazolin-3-yl)-acetamide], > 25 µM; as for `O=C(Cn1cnc2ccccc2c1=O)Nc1ccc(S(=O)(=O)O)cc1` [Compound 127, 4-[2-(4-Oxo-4H-quinazolin-3-yl)-acetylamino]-benzenesulfonic acid], > 25 µM.
As to `CN(C)S(=O)(=O)c1cccc(COC(=O)Cn2cnc3ccccc3c2=O)c1` [Compound 128, (4-Oxo-4H-quinazolin-3-yl)-acetic acid 3-dimethylsulfamoyl-benzyl ester], the EC50 was > 25 µM.
As to `Cc1ccc(S(=O)(=O)N(C)C)cc1NC(=O)Cn1cnc2ccc(Cl)cc2c1=O` [Compound 129, 2-(6-Chloro-4-oxo-4H-quinazolin-3-yl)-N-(5-dimethylsulfamoyl-2-methyl-phenyl)-acetamide], the EC50 is > 25 µM.
In the case of `NS(=O)(=O)c1ccc(CCNC(=O)Cn2c(=O)cnc3ccccc32)cc1` [Compound 130, 2-(2-Oxo-2H-quinoxalin-1-yl)-N-[2-(4-sulfamoyl-phenyl)-ethyl]-acetamide], the EC50 was > 25 µM.
Consider `NS(=O)(=O)c1cccc(NC(=O)Cn2nnc3ccccc3c2=O)c1` [Compound 131, 2-(4-Oxo-4H-benzo[d][1,2,3]triazin-3-yl)-N-(3-sulfamoyl-phenyl)-acetamide], for which the EC50 was > 25 µM.
For the compound `CC(c1ccc(S(N)(=O)=O)cc1)N(C)C(=O)CCc1nc2ccccc2c(=O)[nH]1` (stereo not drawn) [Compound 132, N-Methyl-3-(4-oxo-3,4-dihydro-quinazolin-2-yl)-N-[1-(4-sulfamoyl-phenyl)-ethyl]-propionamide], the half-maximal effective concentration (EC50) is > 25 µM.
As for `CC(C)NS(=O)(=O)c1ccc(NC(=O)C(C)N(C)Cc2nc3ccccc3c(=O)[nH]2)cc1` (stereo not drawn) [Compound 133, N-(4-Isopropylsulfamoyl-phenyl)-2-[methyl-(4-oxo-3,4-dihydro-quinazolin-2-ylmethyl)-amino]-propionamide], the figure is > 25 µM; as for `O=C(Cn1cnc2ccc([N+](=O)[O-])cc2c1=O)Nc1ccc(S(=O)(=O)N2CCCCC2)cc1` [Compound 134, 2-(6-Nitro-4-oxo-4H-quinazolin-3-yl)-N-[4-(piperidine-1-sulfonyl)-phenyl]-acetamide], > 25 µM.
Take `O=C(Cn1cnc2ccc([N+](=O)[O-])cc2c1=O)Nc1ccc(S(=O)(=O)N2CCOCC2)cc1` [Compound 135, N-[4-(Morpholine-4-sulfonyl)-phenyl]-2-(6-nitro-4-oxo-4H-quinazolin-3-yl)-acetamide]: the EC50 was > 25 µM.
`COc1ccc(NC(=O)Cn2cnc3ccccc3c2=O)cc1S(N)(=O)=O` [Compound 136, N-(4-Methoxy-3-sulfamoyl-phenyl)-2-(4-oxo-4H-quinazolin-3-yl)-acetamide]: the EC50 was > 25 µM.
As for `Cc1ccc(-n2c(CCC(=O)NCc3ccc(S(N)(=O)=O)cc3)nc3ccccc3c2=O)cc1` [Compound 137, 3-(4-Oxo-3-p-tolyl-3,4-dihydro-quinazolin-2-yl)-N-(4-sulfamoyl-benzyl)-propionamide], the figure is > 25 µM; as for `O=C(Cn1cnc2ccc(Cl)cc2c1=O)Nc1ccc(S(=O)(=O)N2CCCCCC2)cc1` [Compound 138, N-[4-(Azepane-1-sulfonyl)-phenyl]-2-(6-chloro-4-oxo-4H-quinazolin-3-yl)-acetamide], > 25 µM.
With `O=C(Cn1cnc2cc(F)ccc2c1=O)Nc1ccc(S(=O)(=O)N2CCCCCC2)cc1` [Compound 139, N-[4-(Azepane-1-sulfonyl)-phenyl]-2-(7-fluoro-4-oxo-4H-quinazolin-3-yl)-acetamide], the EC50 was > 25 µM.
